Values of other authors as cited in the CATMoS acute toxicity set (Mansouri et al. 2021).
“And” between values parts separate entries of the source, which are not always exact repeats. Identical values can stand only once.

Assay: rat acute oral toxicity
Details: in vivo

COc1cc(C(F)(F)F)ccn1
LD50: 1750 mg/kg

CCCC(CCC)C(N)=O
LD50: 890 mg/kg

CN(C)C(=S)N/N=C/c1ccc([N+](=O)[O-])o1
LD50: 750 mg/kg

CCC(=O)O[C@](Cc1ccccc1)(c1ccccc1)[C@H](C)CN(C)C
LD50: 84 mg/kg

NC(=O)CC[C@H](N)C(=O)O
LD50: 7500 mg/kg

N=C(N)Nc1ccc(C(=O)Oc2ccc3cc(C(=N)N)ccc3c2)cc1
LD50: 3050 mg/kg

c1ccc(C(OCCN2CCOCC2)c2ccccc2)cc1
LD50: 916 mg/kg

CC(C)(C)S
LD50: 4730 mg/kg

FC(F)(F)c1nc2c(I)cc(Cl)cc2[nH]1
LD50: 24 mg/kg

O=S(=O)(Oc1ccc(Cl)cc1Cl)c1ccccc1
LD50: 1000 mg/kg

COc1ccc(C(=C(C#N)CCC(=O)O)c2ccc(OC)cc2)cc1
LD50: 337 mg/kg

CC(C(=O)O)c1ccc2oc(-c3ccc(Cl)cc3)nc2c1 (stereo unspecified)
LD50: 118 mg/kg

NC(=O)C1c2ccccc2C=Cc2ccccc21
LD50: 1800 mg/kg

Cc1[nH]c(=O)c(C#N)cc1-c1ccncc1
LD50: 91 mg/kg

Cc1ccc(N)cc1Br
LD50: 180 mg/kg

Cn1c(=O)c2c(ncn2CCOC(=O)C(C)(C)Oc2ccc(Cl)cc2)n(C)c1=O
LD50: 17000 mg/kg

BrC=CBr
LD50: 117 mg/kg and 62 mg/kg

C=CC(=O)OCCCCCCCCCC
LD50: 6460 mg/kg

BrC(Br)(Br)c1ccc2ccccc2n1
LD50: 6770 mg/kg

O=C(O)CCC1(CCC(=O)O)c2ccccc2-c2ccccc21
LD50: 2140 mg/kg

FC(F)(F)C(F)(F)OC(F)(F)C(F)(F)F
LD50: 20000 mg/kg

OC(CNc1ccccn1)c1ccccc1 (stereo unspecified)
LD50: 756 mg/kg

CC(=O)c1ccc(O)c(C(N)=O)c1
LD50: 1700 mg/kg

CCNc1ccc(C(=C2C=CC(=[N+](C)C)C=C2)c2ccc(N(C)C)cc2)c2ccccc12
LD50: 960 mg/kg

c1cc2c(cc1C1CO1)O2 (stereo unspecified)
LD50: 2830 mg/kg

CCN(CC)C(=O)[C@]1(c2ccccc2)C[C@@H]1CN
LD50: 213 mg/kg

Cc1nc2ccccc2[se]1
LD50: 471 mg/kg

N#C[C@H](O[C@@H]1O[C@H](CO)[C@@H](O)[C@H](O)[C@H]1O)c1ccccc1
LD50: 560 mg/kg

CCOC(=O)CC(=O)OC(Br)C(Cl)(Cl)Cl (stereo unspecified)
LD50: 2600 mg/kg

NNC(=O)CSc1cc(Oc2ccc(F)cc2)ncn1
LD50: 400 mg/kg

C=C(C)C(=O)OCCN(CCOC(=O)C(=C)C)CCOC(=O)C(=C)C
LD50: 11200 mg/kg

CCCC(C)C1(CC)C(=O)N=C(S)NC1=O (stereo unspecified)
LD50: 117 mg/kg

CN1CC[C@@]23CCCC[C@@H]2[C@@H]1Cc1ccc(O)cc13
LD50: 1100 mg/kg

CON=C(C(=O)N[C@@H]1C(=O)N2C(C(=O)O)=C(COC(N)=O)CS[C@H]12)c1ccco1
LD50: 10000 mg/kg

O=C1C(=NNc2cc([N+](=O)[O-])ccc2O)C(S(=O)(=O)O)=Cc2cc(S(=O)(=O)O)cc(Nc3nc(Cl)nc(Cl)n3)c21
LD50: 9120 mg/kg

CN1C(=CC=CC2=[N+](C)c3ccccc3C2(C)C)C(C)(C)c2ccccc21
LD50: 18 mg/kg

CC(C)NC1Cc2ccccc2Cc2ccccc21 (stereo unspecified)
LD50: 500 mg/kg

CCCCCCCC(=O)NO
LD50: 10700 mg/kg

CCCCOC(C)OCCCC
LD50: 8790 mg/kg

C[Si]1(C)OCCN(CCO)CCO1
LD50: 3400 mg/kg

Cn1c(=O)c2c(ncn2CC(O)CN2CCN(CCCSc3ccccc3)CC2)n(C)c1=O (stereo unspecified)
LD50: 2100 mg/kg

COC(=O)/C(C)=C/OP(=S)(OC)OC
LD50: 678 mg/kg

O=[N+]([O-])O[C@@H]1CO[C@H]2[C@@H]1OC[C@@H]2O
LD50: 2010 mg/kg

C[N+]1(CCC(C2=CCCCC2)c2ccccc2)CCCCC1 (stereo unspecified)
LD50: 1700 mg/kg

CC(c1ccccc1)N(C)N=O (stereo unspecified)
LD50: 600 mg/kg

COP(=S)(OC)Oc1cc(Cl)c(I)cc1Cl
LD50: 2330 mg/kg

C=C(Cl)CCl
LD50: 320 mg/kg

Clc1cccc(C(Cl)(Cl)Cl)n1
LD50: 940 mg/kg

O=[N+]([O-])c1ccc(O)c(Cl)c1
LD50: 900 mg/kg

CCN(CC)CC(=O)c1c2c(cc3c1CCC3)CCC2
LD50: 2220 mg/kg

O=C1CCCCC(=O)N1
LD50: 22600 mg/kg

CCSCCOP(=S)(OC)OC
LD50: 75 mg/kg

CC(C)c1ccc(-c2ccccc2)cc1
LD50: 8500 mg/kg

CC(C)(C)C(=O)C(Cl)Cl
LD50: 1300 mg/kg

CCN(CC)CCNC(=O)c1cc(Br)c(N)cc1OC
LD50: 545 mg/kg

Cc1ncc(CO)c(CN)c1O
LD50: 7500 mg/kg

CC1OC1(C)C (stereo unspecified)
LD50: 2640 mg/kg

COP(=O)(SC)c1ccccc1 (stereo unspecified)
LD50: 55.3 mg/kg

CCCCCOC(CBr)c1ccc(C2CCCCC2)cc1 (stereo unspecified)
LD50: 250 mg/kg

N#CC(=O)c1cccc(Cl)c1Cl
LD50: 50 mg/kg

COc1c(OP(=S)(OC)OC)cnn(C)c1=O
LD50: 2.5 mg/kg

COc1cccc(C(=O)NC2CC3CCC(C2)N3Cc2ccccc2)c1OC (stereo unspecified)
LD50: 147 mg/kg

COC(=O)c1cccc(N=NN(C)C)c1
LD50: 60 mg/kg

CC(C=O)Cc1ccc(C(C)C)cc1 (stereo unspecified)
LD50: 3810 mg/kg

COc1ccc(C)cc1NC(C)=O
LD50: 2240 mg/kg

CCO[Si](C)(C)c1ccccc1
LD50: 2460 mg/kg

Cc1cc(C)c(C)cc1C
LD50: 6990 mg/kg

CNC(=O)ON=C1CSC(C)(C)S1
LD50: 2 mg/kg

C=C(C#N)OC(C)=O
LD50: 100 mg/kg

CC(=O)OCCCl
LD50: 10 mg/kg

C=Cc1ccncc1
LD50: 100 mg/kg
